We go through 28 compounds from patent publication US20240376113A1 (Volastra Therapeutics, Inc., priority 2020, published 2024).

SMILES strings stand for the structures. pKi: −log10 of the molar value. Like-named read-outs stand apart in the source and are kept apart here.

The target of this assay is ENPP-1 ECD (Homo sapiens (Human), UniProt P22413). The assay can be described thus: Inhibition of ENPP1 hydrolysis of 2′,3′-cGAMP (Assay 1). As to conditions: AMP-Glo luminescence, KI from IC50 via Cheng/Prusoff.
[1] abbreviates: Assay 1 KI values (class), 2,3-cGAMP 24 μM.
[2] abbreviates: read-out: Assay 1 KI, 2,3-cGAMP 24 μM.
Where [3] appears, read: read-out: Assay 1 KI values (class), 2,3-cGAMP 24 μM.

As usually defined, the pKi is the negative decadic logarithm of the Ki, by convention in mol/L.

Sequence of ENPP-1 ECD (P22413 98-925): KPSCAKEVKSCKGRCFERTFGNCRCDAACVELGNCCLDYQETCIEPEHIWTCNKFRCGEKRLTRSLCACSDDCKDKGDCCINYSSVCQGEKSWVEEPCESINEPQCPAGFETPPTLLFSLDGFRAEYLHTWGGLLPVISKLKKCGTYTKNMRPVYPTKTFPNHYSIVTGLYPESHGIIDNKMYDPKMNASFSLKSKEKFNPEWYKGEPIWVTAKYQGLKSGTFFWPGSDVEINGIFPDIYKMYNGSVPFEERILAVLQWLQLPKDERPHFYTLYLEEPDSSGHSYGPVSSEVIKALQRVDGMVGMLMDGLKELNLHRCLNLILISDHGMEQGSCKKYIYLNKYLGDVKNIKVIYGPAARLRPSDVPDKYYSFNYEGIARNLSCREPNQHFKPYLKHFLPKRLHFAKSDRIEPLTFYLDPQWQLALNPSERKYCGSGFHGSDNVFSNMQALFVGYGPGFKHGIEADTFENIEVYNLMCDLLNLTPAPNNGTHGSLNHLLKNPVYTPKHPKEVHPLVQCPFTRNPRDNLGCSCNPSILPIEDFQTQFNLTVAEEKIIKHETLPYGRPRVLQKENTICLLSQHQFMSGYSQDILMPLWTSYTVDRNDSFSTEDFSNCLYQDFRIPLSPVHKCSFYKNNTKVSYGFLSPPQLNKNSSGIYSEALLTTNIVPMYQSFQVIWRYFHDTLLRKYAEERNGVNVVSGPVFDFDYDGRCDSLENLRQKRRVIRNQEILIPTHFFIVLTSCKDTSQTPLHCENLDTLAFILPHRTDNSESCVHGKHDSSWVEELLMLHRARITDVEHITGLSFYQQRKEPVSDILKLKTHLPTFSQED
Method: Test compounds were plated in a 3× dilution scheme in a 384 well plate.

Take `Cc1nc2ncnn2c(N(C)C)c1-c1ccc2c(c1)CN(S(N)(=O)=O)CC2` [Compound 69, 7-[7-(dimethylamino)-5-methyl-[1,2,4]triazolo[1,5-a]pyrimidin-6-yl]-1,2,3,4-tetrahydroisoquinoline-2-sulfonamide]: the pKi by setting is: under setting [1], 6.52 to 8.52; under setting [2], 6.91. For `Cc1nc2ncnn2c(N(C)C)c1Cc1cccc(S(N)(=O)=O)c1` [Compound 65, 3-{[7-(dimethylamino)-5-methyl-[1,2,4]triazolo[1,5-a]pyrimidin-6-yl]methyl}benzene-1-sulfonamide], in that order: 6.52 to 8.52 and 6.74.

Consider `Cc1nc2ncnn2c(N(C)C)c1Cc1ccc(S(=N)(=O)C2CC2)cc1` (stereo not drawn) [Compound 63, [cyclopropyl(4-{[7-(dimethylamino)-5-methyl-[1,2,4]triazolo[1,5-a]pyrimidin-6-yl]methyl}phenyl)imino-λ^6-sulfanyl]one], for which the negative logarithm of the Ki (pKi) reads like this: under setting [1], over 8.52; under setting [2], 10.44.

In the case of `Cc1nc2ncnn2c(N(C)C)c1Cc1ccc([S@](=N)(=O)CCC(=O)O)cc1` [Compound 72b], under setting [2], the negative-log Ki (pKi) was 9.01. In the case of `Cc1nc2ncnn2c(N2CC(F)(F)C2)c1Cc1ccc(S(C)(=N)=O)cc1` (stereo not drawn) [Compound 41], the pKi reads like this: under setting [1], 6.52 to 8.52; under setting [2], 7.97. As for `Cc1c(Cc2ccc([S@](C)(=N)=O)cc2)c(N(C)C)n2ncnc2c1C#N` (single isomer, unassigned) [Compound 85b], under setting [2], the pKi is 7.95. Consider `Cc1nc2ncnn2c(N2CC3CC3C2)c1Cc1ccc(S(C)(=N)=O)cc1` (stereo not drawn) [Compound 48, {4-[(7-{3-azabicyclo[3.1.0]heptan-3-yl}-5-methyl-[1,2,4]triazolo[1,5-a]pyrimidin-6-yl)methyl]phenyl}(imino)methyl-λ^6-sulfanone], for which the pKi under setting [1] is over 8.52 and the negative logarithm of the Ki (pKi) under setting [2] is 8.58. Taken in the same sequence, the figures for `Cc1nc2ncnn2c(N(C)C)c1-c1ccc2c(c1)CCN(S(N)(=O)=O)C2` [Compound 84, 6-[7-(dimethylamino)-5-methyl-[1,2,4]triazolo[1,5-a]pyrimidin-6-yl]-1,2,3,4-tetrahydroisoquinoline-2-sulfonamide] were under 6.52 and 6.17. Consider `Cc1cc2ncnn2c(N(C)C)c1Cc1ccc([S@@](C)(=N)=O)cc1` (single isomer, unassigned) [Compound 28b], for which the pKi by setting is: under setting [3], 6.52 to 8.52; under setting [2], 8.00.

Compound `Cc1nc2ncnn2c(N2CC3CC(C3)C2)c1Cc1ccc(S(C)(=N)=O)cc1` (stereo not drawn) [Compound 46, {4-[(7-{3-azabicyclo[3.1.1]heptan-3-yl}-5-methyl-[1,2,4]triazolo[1,5-a]pyrimidin-6-yl)methyl]phenyl}(imino)methyl-λ^6-sulfanone] had a negative logarithm of the Ki (pKi) under setting [1] of 6.52 to 8.52. As for `CS(=N)(=O)Cc1ccc(-c2cnc3ncnn3c2)cc1` (stereo not drawn) [Compound 66, imino(methyl)[(4-{[1,2,4]triazolo[1,5-a]pyrimidin-6-yl}phenyl)methyl]-λ^6-sulfanone], the pKi is, setting by setting: under setting [1], under 6.52; under setting [2], under 5.82.

For `Cc1nc2ncnn2c(N(C)C2CC2)c1Cc1ccc(S(C)(=N)=O)cc1` (stereo not drawn) [Compound 39, [4-({7-[cyclopropyl(methyl)amino]-5-methyl-[1,2,4]triazolo[1,5-a]pyrimidin-6-yl}methyl)phenyl](imino)methyl-λ^6-sulfanone], the pKi under setting [1] is 6.52 to 8.52.

On to `CS(=N)(=O)c1ccc(Cc2c(C(F)(F)F)nc3ncnn3c2N2CCCCC2)cc1` (stereo not drawn) [Compound 52], for which the pKi is 6.52 to 8.52 under setting [1] and 8.31 under setting [2]. Under setting [1], `Cc1nc2ncnn2c(N(C)C)c1-c1ccc(CCS(C)(=N)=O)cc1` (stereo not drawn) [Compound 68, (2-{4-[7-(dimethylamino)-5-methyl-[1,2,4]triazolo[1,5-a]pyrimidin-6-yl]phenyl}ethyl)(imino)methyl-λ^6-sulfanone] gave a negative logarithm of the Ki (pKi) of 6.52 to 8.52. For the compound `Cc1nc2ncnn2c(N(C)C)c1CC1CCN(S(N)(=O)=O)CC1` [Compound 15, 4-{[7-(dimethylamino)-5-methyl-[1,2,4]triazolo[1,5-a]pyrimidin-6-yl]methyl}piperidine-1-sulfonamide], the pKi under setting [1] was 6.52 to 8.52 and the negative logarithm of the Ki (pKi) under setting [2] was 6.31. For the compound `Cc1nc2ncnn2c(N(C)C)c1Cc1cccc(NS(N)(=O)=O)c1` [Compound 3, N-(3-{[7-(dimethylamino)-5-methyl-[1,2,4]triazolo[1,5-a]pyrimidin-6-yl]methyl}phenyl)aminosulfonamide], the negative-log Ki (pKi) is, setting by setting: under setting [1], 6.52 to 8.52; (Assay 1 KI, 2,3-cGAMP 24 μM) 6.65. With `Cc1c(Cc2ccc([S@](C)(=N)=O)cc2)c(N(C)C)n2ccnc2c1C#N` [Compound 80b], the pKi under setting [3] is 6.52 to 8.52 and the negative-log Ki (pKi) under setting [2] is 7.37. `Cc1nc2ncnn2c(N(C)C)c1Cc1cccc(S(C)(=N)=O)c1` (stereo not drawn) [Compound 4, (3-((7-(dimethylamino)-5-methyl-[1,2,4]triazolo[1,5-a]pyrimidin-6-yl)methyl)phenyl)(imino)(methyl)-λ^6-sulfanone]: the negative-log Ki (pKi) is under 6.52 under setting [1] and 6.27 under setting [2]. On to `Cc1nc2ncnn2c(N2CCCC2)c1Cc1ccc([S@@](C)(=N)=O)cc1` (single isomer, unassigned) [Compound 8b], for which the pKi was 6.52 to 8.52 under setting [3] and 7.87 under setting [2]. Regarding `Cc1nc2nccn2c(N2CCCCC2)c1Cc1ccc(S(C)(=N)=O)cc1` (stereo not drawn) [Compound 83, Imino(methyl)(4-{[7-methyl-5-(piperidin-1-yl)imidazo[1,2-a]pyrimidin-6-yl]methyl}phenyl)-λ^6-sulfanone], the negative logarithm of the Ki (pKi) reads like this: under setting [1], over 8.52; under setting [2], 10.01. Regarding `Cc1nc2ncnn2c(N2C3CCC2CC3)c1Cc1ccc(S(C)(=N)=O)cc1` (stereo not drawn) [Compound 44, {4-[(7-{7-azabicyclo[2.2.1]heptan-7-yl}-5-methyl-[1,2,4]triazolo[1,5-a]pyrimidin-6-yl)methyl]phenyl}(imino)methyl-λ^6-sulfanone], the negative logarithm of the Ki (pKi) under setting [1] is 6.52 to 8.52. `Cc1nc2ncnn2c(N(C)C)c1Cc1ccc([S@](C)(=N)=O)cc1` (single isomer, unassigned) [Compound 1a]: the pKi reads like this: under setting [3], 6.52 to 8.52; under setting [2], 7.87.

For the compound `Cc1nc2ncnn2c(N2CCCCC2)c1Cc1ccc([S@@](C)(=N)=O)cc1` [Compound 16b], the pKi reads like this: under setting [3], 6.52 to 8.52; under setting [2], 8.50.

Regarding `Cc1nc2ncnn2c(C)c1Cc1ccc(S(C)(=N)=O)cc1` (stereo not drawn) [Compound 26, [4-({5,7-dimethyl-[1,2,4]triazolo[1,5-a]pyrimidin-6-yl}methyl)phenyl](imino)methyl-λ6-sulfanone], the negative logarithm of the Ki (pKi) was 6.52 to 8.52 under setting [1] and 7.87 under setting [2].

For `Cc1nc2nccn2c(N(C)C)c1Cc1ccc([S@@](C)(=N)=O)cc1` [Compound 29b], the negative logarithm of the Ki (pKi) runs as follows: under setting [3], 6.52 to 8.52; under setting [2], 7.37. In the case of `Cc1nc2ncnn2c(N2CCC(F)(F)CC2)c1Cc1ccc(S(C)(=N)=O)cc1` (stereo not drawn) [Compound 43, (4-{[7-(4,4-difluoropiperidin-1-yl)-5-methyl-[1,2,4]triazolo[1,5-a]pyrimidin-6-yl]methyl}phenyl)(imino)methyl-λ^6-sulfanone], the pKi under setting [1] was 6.52 to 8.52. Still for that read-out and setting: in the case of `Cc1nc2ncnn2c(C2CC2)c1Cc1ccc(S(C)(=N)=O)cc1` (stereo not drawn) [Compound 71, [4-({7-cyclopropyl-5-methyl-[1,2,4]triazolo[1,5-a]pyrimidin-6-yl}methyl)phenyl](imino)methyl-λ6-sulfanone] it was 6.52 to 8.52.

With `Cc1nc2ncnn2c(N(C)C2CCC2)c1Cc1ccc(S(C)(=N)=O)cc1` (stereo not drawn) [Compound 40], the negative-log Ki (pKi) is, setting by setting: under setting [1], 6.52 to 8.52; under setting [2], 7.57.
